Test results published in article PMC3133741 (Journal of medicinal chemistry, 2011).
Bridge positions count the residues as written; N and C are the ends. Square brackets hold non-standard residues; d marks the D form. Peptide text beside a SMILES is read from it. * marks the point of attachment. d(aThr) = C[C@@H](O)[C@@H](N)C(=O)O; Dhb = C/C=C(\N)C(=O)O; Propionyl = CCC(=O)*

How the values were obtained:
human TRPV1 C578A mutant = human TRPV1 C578A mutant (Homo sapiens, UniProt Q8NER1, C578A); assay: Calcium flux assay in HEK-293 cells, human TRPV1 C578A mutant; settings: 375 μM, pre-incubated (Figure 3)
human TRPV1 C621A mutant = human TRPV1 C621A mutant (Homo sapiens, UniProt Q8NER1, C621A); assay: Calcium flux assay in HEK-293 cells, human TRPV1 C621A mutant; settings: 375 μM, pre-incubated (Figure 3)
TRPV1 [1] = target: T1, TRPV1 (Homo sapiens, UniProt Q8NER1); assay: Calcium flux assay in BEAS-2B cells stably overexpressing human TRPV1; format: cell-based; settings: capsaicin 2.5 μM
TRPV1 [2] = target: T1, TRPV1; assay: TRPV1 antagonism, structure-activity comparison; format: cell-based
human wild type TRPV1 = human wild type TRPV1 (Homo sapiens, UniProt Q8NER1); assay: Calcium flux assay in HEK-293 cells transfected with wild-type human TRPV1; format: cell-based; settings: for duration of abolished TRPV1 activity after removal of drug: mouse and human TRPV1 channels
human TRPV1 F660A mutant = human TRPV1 F660A mutant (Homo sapiens, UniProt Q8NER1, F660A); assay: Calcium flux assay in HEK-293 cells, human TRPV1 F660A mutant; settings: 375 μM, pre-incubated (Figure 3)
[3] = test system: mutant human TRPV1 variants; assay: Calcium flux assay in HEK-293 cells, three further; settings: 375 μM, pre-incubated (Figure 3)
TRPV1 [4] = target: TRPV1 (Mus musculus, UniProt Q704Y3); assay: Long-term TRPV1 antagonism test in mouse DRG neurons; format: cell-based; settings: 125 μM, 5 min incubation
mouse DRG neurons = assay: Fluorometric calcium flux assay in mouse DRG primary cell culture; format: cell-based; settings: 125 μM final concentration; 25 mM KCl 5 min after application, then capsaicin

T1 sequence (Q8NER1 whole entry): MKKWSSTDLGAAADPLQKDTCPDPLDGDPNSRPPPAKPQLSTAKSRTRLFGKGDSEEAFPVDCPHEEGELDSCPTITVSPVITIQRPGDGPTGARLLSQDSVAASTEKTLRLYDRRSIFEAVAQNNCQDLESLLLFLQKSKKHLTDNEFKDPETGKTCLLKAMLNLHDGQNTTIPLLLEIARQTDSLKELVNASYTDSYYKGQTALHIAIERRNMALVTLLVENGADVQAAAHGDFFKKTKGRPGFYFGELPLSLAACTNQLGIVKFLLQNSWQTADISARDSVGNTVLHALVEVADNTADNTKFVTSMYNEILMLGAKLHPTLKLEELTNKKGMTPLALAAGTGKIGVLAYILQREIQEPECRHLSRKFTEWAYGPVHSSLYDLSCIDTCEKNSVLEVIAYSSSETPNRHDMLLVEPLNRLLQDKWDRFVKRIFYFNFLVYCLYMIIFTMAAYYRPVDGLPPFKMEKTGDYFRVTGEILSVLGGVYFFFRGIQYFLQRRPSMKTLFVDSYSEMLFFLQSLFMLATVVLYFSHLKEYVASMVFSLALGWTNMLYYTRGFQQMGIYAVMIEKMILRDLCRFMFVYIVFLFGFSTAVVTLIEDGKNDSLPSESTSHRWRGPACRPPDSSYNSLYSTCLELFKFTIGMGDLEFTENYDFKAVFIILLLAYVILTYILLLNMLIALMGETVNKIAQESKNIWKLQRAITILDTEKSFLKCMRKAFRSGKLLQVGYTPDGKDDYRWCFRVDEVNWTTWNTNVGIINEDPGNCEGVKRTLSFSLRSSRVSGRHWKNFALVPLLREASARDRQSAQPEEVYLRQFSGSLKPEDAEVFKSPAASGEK
Chain of human wild type TRPV1 (Q8NER1 whole entry): as above
Chain of TRPV1 (Mus musculus, UniProt Q704Y3) (Q704Y3 whole entry): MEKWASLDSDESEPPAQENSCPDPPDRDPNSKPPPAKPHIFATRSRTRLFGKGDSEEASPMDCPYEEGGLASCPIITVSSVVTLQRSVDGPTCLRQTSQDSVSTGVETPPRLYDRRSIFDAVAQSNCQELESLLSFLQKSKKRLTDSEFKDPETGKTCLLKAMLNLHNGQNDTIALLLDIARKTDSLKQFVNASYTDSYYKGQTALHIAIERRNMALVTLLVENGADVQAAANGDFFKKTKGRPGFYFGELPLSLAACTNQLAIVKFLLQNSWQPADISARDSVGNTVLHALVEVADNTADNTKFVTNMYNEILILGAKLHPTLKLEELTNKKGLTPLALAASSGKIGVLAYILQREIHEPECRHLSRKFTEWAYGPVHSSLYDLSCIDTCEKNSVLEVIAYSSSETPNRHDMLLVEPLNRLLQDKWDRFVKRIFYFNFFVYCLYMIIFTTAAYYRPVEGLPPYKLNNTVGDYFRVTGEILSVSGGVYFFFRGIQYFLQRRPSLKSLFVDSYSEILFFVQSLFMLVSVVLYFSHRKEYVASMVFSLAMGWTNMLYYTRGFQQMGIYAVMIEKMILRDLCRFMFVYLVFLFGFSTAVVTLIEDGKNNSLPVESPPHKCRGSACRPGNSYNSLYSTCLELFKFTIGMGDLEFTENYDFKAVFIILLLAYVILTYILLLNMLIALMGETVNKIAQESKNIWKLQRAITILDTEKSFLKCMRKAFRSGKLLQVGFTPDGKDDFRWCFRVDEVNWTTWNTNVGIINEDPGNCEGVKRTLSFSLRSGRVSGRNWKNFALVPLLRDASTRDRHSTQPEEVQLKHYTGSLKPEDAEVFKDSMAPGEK
Chain of human TRPV1 F660A mutant (Q8NER1 whole entry F660A): as the sequence (Q8NER1 whole entry) above, with F660A counted along it
Chain of human TRPV1 C621A mutant (Q8NER1 whole entry C621A): as the sequence (Q8NER1 whole entry) above, with C621A counted along it
Chain of human TRPV1 C578A mutant (Q8NER1 whole entry C578A): as the sequence (Q8NER1 whole entry) above, with C578A counted along it

SMILES	TRPV1 antagonism in C578A mutant (human TRPV1 C578A mutant)	TRPV1 antagonism in C621A mutant (human TRPV1 C621A mutant)	antagonism of capsaicin in direct competition experiments (TRPV1 [1])	inhibitory activity (in words) (TRPV1 [2])	duration of abolished TRPV1 activity after removal of drug (human wild type TRPV1)	TRPV1 antagonism in F660A mutant (human TRPV1 F660A mutant)	inhibition of three other TRPV1 mutants [3]	further results
C/C=C1\NC(=O)[C@H](C)NC(=O)[C@H](C(C)C)NC(=O)[C@H](NC(=O)[C@H](Cc2ccccc2)NC(=O)[C@@H](CC(C)C)NC(=O)[C@@H](Cc2ccccc2)NC(C)=O)[C@@H](C)OC1=O [Compound 2, A-3302-A] (Ac-[dF][dL]F[d(aThr)]VA[Dhb]; ester 4-C)	complete loss of TRPV1 antagonism	complete loss of TRPV1 antagonism	antagonize the action of capsaicin on TRPV1	exhibited inhibitory activity	> 1 h	complete loss of TRPV1 antagonism	in a manner similar to wild type	
CC(=O)N[C@@H](Cc1ccccc1)C(=O)N[C@H](CC(C)C)C(=O)N[C@@H](Cc1ccccc1)C(=O)N[C@@H](C(=O)N[C@H](C(=O)N[C@@H](C)C(=O)O)C(C)C)[C@@H](C)O [Compound 6, Nobilamide C] (Ac-F[dL]F[d(aThr)]VA-OH)				Neither 6 nor 1a exhibited detectable activity				
C/C=C1\NC(=O)[C@H](C)NC(=O)[C@H](C(C)C)NC(=O)[C@H](NC(=O)[C@H](Cc2ccccc2)NC(=O)[C@@H](CC(C)C)NC(=O)[C@@H](Cc2ccccc2)NC(=O)CC)[C@@H](C)OC1=O [Compound 1, A-3302-B] (Propionyl-[dF][dL]F[d(aThr)]VA[Dhb]; ester 4-C)				exhibited inhibitory activity				
C/C=C(\NC(=O)[C@H](C)NC(=O)[C@@H](NC(=O)[C@H](NC(=O)[C@H](Cc1ccccc1)NC(=O)[C@@H](CC(C)C)NC(=O)[C@@H](Cc1ccccc1)NC(=O)CC)[C@@H](C)O)C(C)C)C(=O)O [Compound 5, Nobilamide B] (Propionyl-[dF][dL]F[d(aThr)]VA[Dhb]-OH)	complete loss of TRPV1 antagonism	complete loss of TRPV1 antagonism	antagonize the action of capsaicin on TRPV1	exhibited inhibitory activity	> 1 h	complete loss of TRPV1 antagonism	in a manner similar to wild type	potency with pre-incubation versus co-application with capsaicin (human wild type TRPV1; 375 μM compound, capsaicin 25 μM (Figure 1)): greatly increased with pre-incubation; stability of inhibitory activity to washes (human wild type TRPV1; 375 μM, 1 h timecourse with washes (Figure 2)): stable through four washes taking place over a 60-min period; rebound of activity (human wild type TRPV1; after washes, human cells): slight rebound of activity was noticed after one hour
C/C=C1\NC(=O)[C@H](C)NC(=O)[C@H](C(C)C)NC(=O)[C@H](NC(=O)[C@H](Cc2ccc(O)cc2)NC(=O)[C@@H](CC(C)C)NC(=O)[C@H](Cc2ccccc2)NC(C)=O)[C@@H](C)OC1=O [Compound 8, Nobilamide E] (Ac-F[dL]Y[d(aThr)]VA[Dhb]; ester 4-C)				inactive				
C/C=C(\NC(=O)[C@H](C)NC(=O)[C@@H](NC(=O)[C@H](NC(=O)[C@H](Cc1ccccc1)NC(=O)[C@@H](CC(C)C)NC(=O)[C@@H](Cc1ccccc1)NC(C)=O)[C@@H](C)O)C(C)C)C(=O)O [Compound 4, Nobilamide A] (Ac-[dF][dL]F[d(aThr)]VA[Dhb]-OH)				exhibited inhibitory activity				recovery of capsaicin response (TRPV1 [4]; three-hour recovery period): recovery was observed after three hours; capsaicin response after incubation with compound (TRPV1 [4]; capsaicin 100 or 200 nM): initially abolished; response to capsaicin after application of pure compound (mouse DRG neurons): complete loss of response to capsaicin
